ChEMBL document CHEMBL4828751, “Discovery of novel tubulin/HDAC dual-targeting inhibitors with strong antitumor and antiangiogenic potency” (Eur J Med Chem, 2021)
Active and inactive are the calls of the source. The rule behind the calls is not given here.

Experiments:
HeLa = assay: Antiproliferative activity against human HeLa cells assessed as cell growth inhibition after 72 hrs by SRB assay; assay type: functional, cell-based
MGC-803 [1] = assay: Induction of apoptosis in human MGC-803 cells assessed as viable cells at 2 nM measured after 48 hrs by Annexin V-APC/PI double staining based flow cytometry assay (Rvb =93.5 %); assay type: functional, cell-based
MGC-803 [2] = assay: Induction of apoptosis in human MGC-803 cells assessed as late apoptotic cells at 2 nM measured after 48 hrs by Annexin V-APC/PI double staining based flow cytometry assay (reference value: 3.62 %); assay type: functional, cell-based
U-937 = assay: Antiproliferative activity against human U-937 cells assessed as cell growth inhibition after 72 hrs by CCK8 assay; assay type: functional, cell-based; details: U-937, 72 h
MGC-803 [3] = assay: Antiproliferative activity against human MGC-803 cells assessed as cell growth inhibition after 72 hrs by SRB assay; assay type: functional, cell-based; details: MGC-803, 72 h
MGC-803 [4] = assay: Induction of apoptosis in human MGC-803 cells assessed as necrotic cells at 2 nM measured after 48 hrs by Annexin V-APC/PI double staining based flow cytometry assay (reference value: 0.44%); assay type: functional, cell-based
MGC-803 [5] = assay: Induction of cell cycle arrest in human MGC-803 cells assessed as accumulation at S phase at 2 nM incubated for 24 hrs by propidium iodide staining based flow cytometry (Rvb =31.51 %); assay type: functional
MGC-803 [6] = assay: Induction of apoptosis in human MGC-803 cells assessed as early apoptotic cells at 2 nM measured after 48 hrs by Annexin V-APC/PI double staining based flow cytometry assay (reference value: 2.42 %); assay type: functional, cell-based
MGC-803 [7] = assay: Induction of cell cycle arrest in human MGC-803 cells assessed as accumulation at G2/M phase at 2 nM incubated for 24 hrs by propidium iodide staining based flow cytometry (reference value: 28.59 %); assay type: functional
MGC-803 [8] = assay: Induction of cell cycle arrest in human MGC-803 cells assessed as accumulation at G1 phase at 2 nM incubated for 24 hrs by propidium iodide staining based flow cytometry (Rvb =39.64 %); assay type: functional

SMILES: COc1ccc(/C=C\c2cc(OC)c(OC)c(OC)c2)cc1O [COMBRETASTATIN A4]
- IC50 (HeLa): 9 nM
- Activity (MGC-803 [1]): Active
- Activity (MGC-803 [2]): Active
- IC50 (U-937): 1 nM
- IC50 (MGC-803 [3]): 2 nM
- Activity (MGC-803 [4]): Active
- Activity (MGC-803 [5]): 31.58%
- Activity (MGC-803 [6]): Active
- Activity (MGC-803 [7]): Dose-Dependent Effect
- Activity (MGC-803 [7]; record 2): 28.25%
- Activity (MGC-803 [8]): 40.88%
